Reference: patent US20020150915A1, “Promoter sequences” (priority 2000, published 2002)

Biological target: T1, CAR (Homo sapiens, UniProt Q14994)
T1 construct: amplifying full-length CAR by RT-PCR from total RNA prepared from C3A/HepG2 cells; expressed in transfected cells; host or cells: C3A cells (HepG2 derivative), transient transfection with pcDNA3-hCAR
T1 sequence (Q14994 1-348 isoform Q14994-2): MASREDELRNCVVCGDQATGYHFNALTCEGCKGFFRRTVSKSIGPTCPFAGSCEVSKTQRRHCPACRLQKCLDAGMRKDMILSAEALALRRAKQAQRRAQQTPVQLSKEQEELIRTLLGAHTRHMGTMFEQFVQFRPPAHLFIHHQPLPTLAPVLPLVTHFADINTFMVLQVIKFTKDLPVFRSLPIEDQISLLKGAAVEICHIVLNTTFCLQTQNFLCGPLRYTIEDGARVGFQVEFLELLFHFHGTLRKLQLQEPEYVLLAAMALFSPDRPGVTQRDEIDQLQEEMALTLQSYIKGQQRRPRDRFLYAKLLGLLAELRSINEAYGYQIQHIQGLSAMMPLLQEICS
Experiment: Cell based CYP3A7 promoter-luciferase reporter assay with CAR expression vector
Settings: C3A cells transfected with CYP3A7-9302 reporter and CAR expression vector; 10 μM compound, 48 hours; FIG. 3
Procedure: C3A cells were transfected with Cyp3A7 promoter with (Cyp3A7-9302) or without (CYP3A7-7478) the XREM and with CAR expression vector (CAR) or with empty (pcDNA3) expression vector. Cells were treated with vehicle (DMSO) or 10 μM of rifampicin or clotrimasol. Relative luciferase values represent luciferase activity compensated for the alkaline phosphatase reporter. The data are mean values +/−SD for six wells of a typical experiment
Six well plates were seeded with 0.5×10^6 C3A cells. The cells were maintained in MEM with phenol red containing L-glutamine and supplemented with nonessential amino acids. The medium also contained 10% foetal bovine serum (life Technologies). The cells were allowed to settle for 24 hours before the medium was replaced by medium containing 10% charcoal treated foetal bovine serum (Hyclone Laboratories). Each well was transfected with 0.1 μg RSV-AF, 2 μg of the indicated reporter and 0.5 μg of the expression vector for PAR-2, CAR or the empty expression vector, pcDNA3. FuGENE 6™ Transfection Reagent (Roche) was used according to recommendations from the manufacturer. After 24 hours the medium was replaced by fresh medium containing 10% charcoal treated foetal bovine serum. […] After induction for 48 hours the medium was analysed for the alkaline phosphatase activity and the luciferase activity was measured in the cell lysate as described (Bertilsson et al., 1998). […]

`Clc1ccccc1C(c1ccccc1)(c1ccccc1)n1ccnc1` [clotrimazole] was tested, and the “CAR dependent induction of CYP3A7 reporter” value was “reduced”.
